Measured values taken from ChEMBL document CHEMBL1129234, “Synthesis of phosphorus-containing amino acid analogs as inhibitors of nitric oxide synthase” (Bioorg Med Chem Lett, 1996).

Experiments:
[1] = target: T1, Nitric oxide synthase, inducible (Mus musculus, UniProt P29477); test: Compound was tested in vitro for inhibitory activity against inducible nitric oxide synthase
T1 sequence (P29477 whole entry): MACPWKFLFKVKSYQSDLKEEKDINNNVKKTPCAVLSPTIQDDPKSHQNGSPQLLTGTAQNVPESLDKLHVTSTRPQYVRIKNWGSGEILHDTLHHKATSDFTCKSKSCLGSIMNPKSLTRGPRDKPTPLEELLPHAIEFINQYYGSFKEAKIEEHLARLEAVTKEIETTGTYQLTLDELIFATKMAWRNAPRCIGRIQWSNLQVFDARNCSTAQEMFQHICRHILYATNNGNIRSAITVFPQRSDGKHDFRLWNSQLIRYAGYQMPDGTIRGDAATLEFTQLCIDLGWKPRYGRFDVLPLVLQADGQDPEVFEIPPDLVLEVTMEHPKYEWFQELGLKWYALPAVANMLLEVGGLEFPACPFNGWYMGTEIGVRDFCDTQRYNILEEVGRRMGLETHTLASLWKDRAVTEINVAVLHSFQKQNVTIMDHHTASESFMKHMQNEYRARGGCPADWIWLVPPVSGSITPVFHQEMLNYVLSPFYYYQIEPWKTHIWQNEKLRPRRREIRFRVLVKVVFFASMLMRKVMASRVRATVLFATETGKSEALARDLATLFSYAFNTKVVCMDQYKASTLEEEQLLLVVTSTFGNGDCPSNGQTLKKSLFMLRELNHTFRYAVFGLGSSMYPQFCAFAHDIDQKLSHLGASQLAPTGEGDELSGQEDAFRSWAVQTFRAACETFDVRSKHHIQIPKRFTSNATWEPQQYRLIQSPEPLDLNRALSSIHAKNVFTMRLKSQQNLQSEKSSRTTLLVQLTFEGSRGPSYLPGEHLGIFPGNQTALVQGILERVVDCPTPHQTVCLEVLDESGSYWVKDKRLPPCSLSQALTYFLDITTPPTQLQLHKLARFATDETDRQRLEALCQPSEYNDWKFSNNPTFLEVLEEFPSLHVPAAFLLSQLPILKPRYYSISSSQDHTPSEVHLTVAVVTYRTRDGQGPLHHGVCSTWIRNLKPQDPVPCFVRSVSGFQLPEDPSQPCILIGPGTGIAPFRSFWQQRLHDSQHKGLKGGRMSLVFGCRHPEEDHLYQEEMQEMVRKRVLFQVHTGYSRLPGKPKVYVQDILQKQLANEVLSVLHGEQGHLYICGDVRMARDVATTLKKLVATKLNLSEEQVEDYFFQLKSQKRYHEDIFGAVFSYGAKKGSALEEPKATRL

Nitric oxide synthase 1 = Nitric oxide synthase 1 (Rattus norvegicus, UniProt P29476); test: Compound was tested in vitro for inhibitory activity against nNOS (constitutive isoform found in neurons)
Chain of Nitric oxide synthase 1 (P29476 whole entry, canonical isoform): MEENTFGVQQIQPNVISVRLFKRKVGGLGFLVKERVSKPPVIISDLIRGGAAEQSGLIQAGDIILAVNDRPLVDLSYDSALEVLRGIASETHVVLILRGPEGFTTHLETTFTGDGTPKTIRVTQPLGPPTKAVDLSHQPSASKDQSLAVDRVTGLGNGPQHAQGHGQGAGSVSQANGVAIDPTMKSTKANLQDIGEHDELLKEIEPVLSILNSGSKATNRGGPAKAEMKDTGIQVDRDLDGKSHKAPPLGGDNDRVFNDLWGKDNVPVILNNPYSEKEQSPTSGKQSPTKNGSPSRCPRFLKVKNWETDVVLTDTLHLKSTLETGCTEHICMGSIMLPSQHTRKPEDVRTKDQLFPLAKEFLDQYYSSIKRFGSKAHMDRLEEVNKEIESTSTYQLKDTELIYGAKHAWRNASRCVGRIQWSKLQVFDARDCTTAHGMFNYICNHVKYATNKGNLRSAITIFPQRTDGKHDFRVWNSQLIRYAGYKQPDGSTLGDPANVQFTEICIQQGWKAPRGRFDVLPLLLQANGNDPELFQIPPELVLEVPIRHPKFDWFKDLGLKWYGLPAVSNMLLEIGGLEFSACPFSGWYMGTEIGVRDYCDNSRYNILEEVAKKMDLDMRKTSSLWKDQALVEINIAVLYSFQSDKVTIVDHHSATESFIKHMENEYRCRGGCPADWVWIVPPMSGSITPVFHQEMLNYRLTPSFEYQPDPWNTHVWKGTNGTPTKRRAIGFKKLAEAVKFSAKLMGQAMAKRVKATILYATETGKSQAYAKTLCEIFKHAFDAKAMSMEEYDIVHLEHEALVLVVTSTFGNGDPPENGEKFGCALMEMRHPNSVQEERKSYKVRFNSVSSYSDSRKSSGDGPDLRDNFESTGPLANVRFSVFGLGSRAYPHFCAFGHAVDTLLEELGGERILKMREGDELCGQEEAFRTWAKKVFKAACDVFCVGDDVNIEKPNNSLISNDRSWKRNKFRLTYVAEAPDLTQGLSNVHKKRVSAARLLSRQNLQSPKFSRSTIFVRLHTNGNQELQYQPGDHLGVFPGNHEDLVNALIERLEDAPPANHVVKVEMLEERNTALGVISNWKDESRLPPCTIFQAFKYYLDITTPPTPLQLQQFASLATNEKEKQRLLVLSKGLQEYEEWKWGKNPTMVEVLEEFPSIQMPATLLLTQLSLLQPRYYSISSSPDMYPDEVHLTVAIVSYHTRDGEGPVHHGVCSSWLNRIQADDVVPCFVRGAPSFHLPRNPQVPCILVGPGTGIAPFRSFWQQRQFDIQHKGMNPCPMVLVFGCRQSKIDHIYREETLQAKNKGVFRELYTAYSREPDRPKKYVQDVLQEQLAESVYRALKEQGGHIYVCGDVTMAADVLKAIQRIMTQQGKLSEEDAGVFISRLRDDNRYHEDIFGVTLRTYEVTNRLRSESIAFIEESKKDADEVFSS

## N/C(=N/CCCC(N)P(=O)(O)O)N[N+](=O)[O-] (stereo not drawn)
[1]
  IC50: > 100 µM
Nitric oxide synthase 1
  IC50: > 100 µM

## CNC(=N)NCCCC(N)[PH](=O)O (stereo not drawn)
[1]
  IC50: > 100 µM
Nitric oxide synthase 1
  IC50: 100 µM

## N=C(N)NCCCC(N)P(=O)(O)O (stereo not drawn)
[1]
  IC50: > 100 µM
Nitric oxide synthase 1
  IC50: > 100 µM

## CNC(=N)NCCCC(N)P(=O)(O)O (stereo not drawn)
[1]
  IC50: > 100 µM
Nitric oxide synthase 1
  IC50: > 100 µM

## NC(N)=NCCCC(N)[PH](=O)O (stereo not drawn)
[1]
  IC50: > 100 µM
Nitric oxide synthase 1
  IC50: > 100 µM

## N/C(=N/CCCC(N)[PH](=O)O)N[N+](=O)[O-] (stereo not drawn)
[1]
  IC50: > 100 µM
Nitric oxide synthase 1
  IC50: 45 µM

## N=C(NCCC[C@H](N)C(=O)O)N[N+](=O)[O-] [NITROARGININE]
[1]
  IC50: 10 µM
